Experiments:
[1] = system: Sarcoma 180 tumor cells; assay: Therapeutic Effect against Sarcoma 180 Tumor Cells; type: in vivo, male ddY-strain mice; conditions: intravenous, seven days after implantation
Protocol: Five male ddY-strain mice each having a weight of 18 to 20 g were used for each group as test animals, and 5×10^5 Sarcoma 180 tumor cells were implanted subcutaneously into the animals at the axilla. Ond day after the implantation, 0.2 ml of physiological saline containing a test compound in the concentration indicated in Table 3 was intravenously administered to each mouse. T/C [T: average tumor volume (mm^3) of the groups treated with the test compound, C: that of the control group which received an intravenous administration of 0.2 ml of physiological saline] was determined seven days after the implantation.

[2] = system: dd strain male mice; assay: Acute Toxicity Test; type: in vivo; conditions: intraperitoneal, 14 days after administration
Protocol: A test compound was intraperitoneally administered to dd strain male mice each weighing 20 ±1 g. MLD (the minimum lethal dose) was determined by observing the mortality for 14 days after the administration.

[3] = system: various bacteria; conditions: prior art WO 87/06265, EP-A-0351865, JP 139590/89; cited from earlier work
[4] = system: lymphocytic leukemia P388; conditions: prior art WO 87/06265, EP-A-0351865, JP 139590/89; cited from earlier work
[5] = prior art U.S. Pat. No. 4,169,888, EP-A-0154445, EP-A-0339681; cited from earlier work

Row | SMILES | Acute Toxicity (MLD), minimum lethal dose [2] | Sarcoma 180 T/C (average tumor volume, treated/control) ([1]; dose 1.0 mg/kg) | also measured
1 | COC(=O)c1c(C)[nH]c2c(OC(=O)N3CCN(C)CC3)cc3c(c12)C(CBr)CN3C(=O)c1cc2cc(OC)c(OC)c(OC)c2[nH]1 (centres unmarked) [Compound 18] | 0.84 mg/kg |  | Sarcoma 180 T/C (average tumor volume, treated/control) ([1]; dose 0.50 mg/kg, 0.5 mg/kg): 0.14
2 | COC(=O)c1c(C)[nH]c2c(OC(=O)N3CCN(C)CC3)cc3c(c12)C(CBr)CN3C(=O)c1cc2cc(OC)c(OC)c(OC)c2[nH]1 (centres unmarked) [Compound 16] | 1.0 mg/kg |  | Sarcoma 180 T/C (average tumor volume, treated/control) ([1]; dose 0.50 mg/kg, 0.5 mg/kg): 0.24
3 | COC(=O)c1c(C)[nH]c2c(O)cc3c(c12)C(CCl)CN3C(=O)c1cc2cc(OC)c(OC)c(OC)c2[nH]1 (centres unmarked) [Compound 2] | 1.0 mg/kg |  | 
4 | COC(=O)c1c(C)[nH]c2c(O[Si](C)(C)C(C)(C)C)cc3c(c12)C(CBr)CN3C(=O)c1cc2cc(OC)c(OC)c(OC)c2[nH]1 (centres unmarked) [Compound 1] | 1.0 mg/kg |  | Sarcoma 180 T/C (average tumor volume, treated/control) ([1]; dose 0.25 mg/kg): 0.043
5 | COC(=O)c1c(C)[nH]c2c(OC(=O)N(C)C)cc3c(c12)C(CBr)CN3C(=O)c1cc2cc(OC)c(OC)c(OC)c2[nH]1 (centres unmarked) [Compound 13] | 1.0 mg/kg | 0.063 | 
6 | COC(=O)C1(C)NC2=C(C1=O)C13CC1CN(C(=O)c1cc4cc(OC)c(OC)c(OC)c4[nH]1)C3=CC2=O (centres unmarked) [DC-88A] |  |  | antibacterial activity [3]: antibacterial activity against various bacteria; anti-tumor activity against lymphocytic leukemia P388 [4]: anti-tumor activity against lymphocytic leukemia P388
7 | COC(=O)c1c(C)[nH]c2c(OC(=O)N3CCCCC3)cc3c(c12)C(CBr)CN3C(=O)c1cc2cc(OC)c(OC)c(OC)c2[nH]1 (centres unmarked) [Compound 14] | 1.0 mg/kg | 0.098 | Sarcoma 180 T/C (average tumor volume, treated/control) ([1]; dose 0.50 mg/kg): 0.20
8 | COC(=O)c1c(C)[nH]c2c1C13CC1CN(C(=O)c1cc4cc(OC)c(OC)c(OC)c4[nH]1)C3=CC2=O (centres unmarked) [Compound 4] | 0.5 mg/kg |  | Sarcoma 180 T/C (average tumor volume, treated/control) ([1]; dose 0.25 mg/kg): 0.21
9 | COC(=O)c1c(C)[nH]c2c(OC(=O)N3CCCC3)cc3c(c12)C(CBr)CN3C(=O)c1cc2cc(OC)c(OC)c(OC)c2[nH]1 (centres unmarked) [Compound 15] | 1.0 mg/kg | 0.088 | Sarcoma 180 T/C (average tumor volume, treated/control) ([1]; dose 0.50 mg/kg): 0.21
10 | COc1c(O)c2c(c3cc(C(=O)N4CCc5c4c(O)c(OC)c4[nH]c(C(=O)N6CC7CC78C6=CC(=O)c6[nH]cc(C)c68)cc54)[nH]c13)CCN2C(N)=O (centres unmarked) [CC-1065] |  |  | anti-tumor activity [5]: exhibit anti-tumor activity

— patent publication US5070092A, “Pyrroloindole derivatives related to DC-88A compound” (Kyowa Hakko Kogyo Co., Ltd., priority 1989, dated 1991)
